Assays:
[1] = tested on: healthy subjects; test: Acute subjective effects on the Visual Analog Scale (VAS); type: in vivo, human
Method: (§1) Study design: The present study compares the acute subjective, physiological and endocrine effects of S-MDMA (125 mg), R-MDMA (125 and 250 mg), MDMA (125 mg) using a placebo-controlled double-blind 5-period cross-over design in 24 healthy subjects. Conditions are 1.) R-MDMA 125 mg, 2). R-MDMA 250 mg, 3) S-MDMA 125 mg, 4) MDMA 125 mg, 5) placebo. Treatment order is counterbalanced. Washout periods between substance administrations are at least 10 days. Study days include a 10-hour study session with a subsequent single measurement (short visit) the next morning (24 hours after drug administration).
Study procedures: The study takes place at the University Hospital Basel. Each of the test sessions last from 8:00 until 18:00 with a short visit the next morning (24 hours after application). An indwelling intravenous catheter is inserted into a subcutaneous vein of the forearm and baseline psychometric measures are obtained. Administration of the substance is at 9:00. Outcome measures (see below) are repeatedly assessed during the study session. Subjects are under continuous medical supervision until any alterations of consciousness have completely subsided and they leave the research facility.
Psychometric assessments: Visual Analog Scale (VAS): VASs is repeatedly used to assess subjective alterations in consciousness over time. Single scales are presented as 100 mm horizontal lines marked with “not at all” on the left and “extremely” on the right. The following VAS items are used: “any drug effect”, “good drug effect”, “bad drug effect”, “stimulated”, “liking”, “happy”, “content”, “talkative”, “open”, “trust”, “feeling close to others”, “anxiety”, “alteration of vision”, “alterations of hearing”, “sounds seem to influence what I see”, “alteration of sense of time”, “the boundaries between myself and my surroundings seem to blur”, “want to be with other people”, and “want to be alone”. Scales are administered before and repeatedly after substance administration and take approximately 2 minutes to fill out. The maximal ratings (Emax, 0-100) and areas under the effect-time curve (AUEC) are defined for each VAS and Emax and AUEC values compared between treatments using analysis of variance. 5-Dimensions of Altered States of Consciousness (5D-ASC): The 5 Dimensions of Altered States of Consciousness (5D-ASC) Scale is a questionnaire containing visual analog scales for 94 items (Studerus et al., 2010). The instrument contains five scales assessing mood, anxiety, derealization, depersonalization, changes in perception, auditory alterations, and reduced vigilance. The scale is well-validated (Studerus et al., 2010) and used internationally to evaluate effects of many other psychoactive substances. The overall psychedelic experience is reflected by the total […] score. Each item of the scale is scored on a 0-100 mm VAS. The attribution of the individual items to the subscales of the 5D-ASC is analyzed according to (Studerus et al., 2010). The 5D-ASC scale is administered once at the end of the session and subjects are instructed to retrospectively rate peak alterations that have been experienced during the study session. Adiective Mood Rating Scale (AMRS): The Adjective Mood Rating Scale (AMRS or EWL60S) is a 60-item Likert scale that allows repeated assessment of mood in 6 dimensions: Activation, inactivation, well-being, anxiety/depressed mood, extra- and introversion, and emotional excitability. The German EWL60S version is used. The AMRS consists of subscales measuring “activation,” “positive mood,” “extraversion,” “introversion,” “inactivation,” and “emotional excitability. The scale has previously been used to evaluate effects of many other psychoactive substances. Emax and AUEC scores will be defined for each subscale and compared between treatments using analysis of variance. The AMRS is administered repeatedly throughout the study session and once 3 days after each session. […]

[2] = tested on: healthy subjects; test: Endocrine effects (plasma prolactin and cortisol); type: in vivo, human
Method: as §1
Endocrine effects: Cortisol and prolactin: Cortisol and prolactin are determined as biological markers of serotonergic activity (Seifritz et al., 1996). Plasma concentrations are determined by routine immune assays. Oxytocin and vasopressin: MDMA increase circulating oxytocin (Hysek et al., 2014a) and vasopressin or its precursor copeptin (Simmler et al., 2011). These neurohormones are thought to mediate neurocognitive and adverse effects of MDMA and the role of R-versus S-MDMA remains to be explored. Oxytocin and vasopressin plasma levels are measured before and after substance administration. Concentrations are determined using immunoassays.

[3] = tested on: animals; details: cited from earlier work
[4] = tested on: serotonin; details: rat, in vivo; cited from earlier work
[5] = administered repeatedly at high doses; cited from earlier work
[6] = tested on: rhesus monkeys; details: cited from earlier work
[7] = tested on: rhesus monkeys; details: indicative of abuse-liability; cited from earlier work
[8] = tested on: rodents; details: relative to racemic MDMA; cited from earlier work
[9] = tested on: mice; details: cited from earlier work
[10] = tested on: dopamine (DA), norepinephrine (NE), serotonin (5-HT), and oxytocin; details: preclinical research; cited from earlier work
[11] = tested on: humans; details: earlier human study; R-MDMA doses up to 200 mg; cited from earlier work
[12] = tested on: animals; details: various animal studies; cited from earlier work
[13] = tested on: monkeys; details: cited from earlier work
[14] = tested on: mice; details: cited from earlier work; remark: listed apart in the source
[15] = tested on: prolactin (PRL); details: preclinical research; cited from earlier work

For CN[C@@H](C)Cc1ccc2c(c1)OCO2 [S-MDMA, S(+)-MDMA], the “how much stimulated participants felt” value ([1]; 125 mg S-MDMA compared to (±)-MDMA) was “no significant difference”, the “how much stimulated participants felt” value ([1]; 125 mg S-MDMA compared to both doses of R-MDMA) was “higher values” and the “VAS Emax for “bad drug effects,” “alteration of vision” and “audio-visual synesthesia”” value ([1]; 125 mg S-MDMA compared with 125 mg (±)-MDMA, 24 subjects) was “higher Emax values”. The “VAS items “alteration of vision” and “audio-visual synesthesia”” value ([1]; 125 mg S-MDMA compared with both R-MDMA doses and (±)-MDMA) was “higher increases”, the “all VAS items except “fear”” value ([1]; 125 mg S-MDMA versus 250 mg R-MDMA) was “significant stronger effects” and the “VAS “any drug effects”, “good drug effects”, “I like the effect”, “stimulation”, “alteration of time” and “ego dissolution”” value ([1]; 125 mg S-MDMA versus 125 and 250 mg R-MDMA) was “more than 125 and 250 mg R-MDMA”. The “VAS “bad drug effects,” “alteration of vision” and “audio-visual synesthesia”” value ([1]; 125 mg S-MDMA versus (±)-MDMA and 250 mg R-MDMA) was “stronger”, the “VAS “talkative,” “open,” “trust,” and “I feel close to others”” value ([1]; 125 mg, compared with both R-MDMA doses and placebo) was “higher values” and the “feelings of “drug high”” value ([1]; S-MDMA compared with R-MDMA, abuse potential) was “greater”. The prolactin release ([2]; 125 mg S-MDMA compared to (±)-MDMA and 125 mg R-MDMA) was “increased more”, the cortisol release ([2]; 125 mg S-MDMA compared to (±)-MDMA and both doses of R-MDMA) was “increased cortisol release more” and the hyperthermia [3] was “induced hyperthermia”. For the same molecule, the depleting serotonin [4] was “more effective”, the neurotoxicity [5] was “more neurotoxic than R-MDMA” and the “potency to maintain self-administration” value [6] was “more potent than R-MDMA”. The “reinstatement of amphetamine responding” value [7] was “reinstated amphetamine responding”, the “potency for locomotor stimulant effects” value [8] was “mostly equipotent to racemic MDMA” and the lethal doses [9] was “similar”. The “release of dopamine (DA), norepinephrine (NE), serotonin (5-HT), and oxytocin” value [10] was “mainly releases”, the activity in humans [11] was “more active than the R-enantiomer” and the social interaction [12] was “only slightly with S-MDMA or not at all”.
For CN[C@H](C)Cc1ccc2c(c1)OCO2 [R-MDMA, R(−)-MDMA], the “VAS Emax for “feeling high”” value ([1]; 250 mg R-MDMA compared with 125 mg (±)-MDMA, 24 subjects) is given as “lower Emax values”, the “VAS “drug high”, “happy”, “content”, “talkative”, “open”, “trust” and “I feel close to others”” value ([1]; 250 mg R-MDMA versus (±)-MDMA and S-MDMA) is given as “lower effects” and the “peak effects on prosocial behaviors” value [13] is given as “greater peak effects than S-MDMA”. For the same molecule, the “peak effects on prosocial behaviors” value [14] was “greater peak effects than S-MDMA”, the “potency for locomotor stimulant effects” value [8] was “clearly less potent than racemic MDMA” and the “release of prolactin (PRL)” value [15] was “release prolactin”. For the same molecule, the social interaction [12] was “Increased social interaction”.
